This test concerns the target T1, voltage-dependent T-type calcium channel subunit alpha-1G (Cav3.2) (Homo sapiens, UniProt O95180).
T1 construct: expressed in transfected cells; host or cells: HEK293
The test can be described thus: FLIPR calcium flux assay, HEK293 cells recombinantly expressing Cav3.2. The note with it: Cav3.2-channel, Fluo-4-AM, 3 min incubation, stimulation with 10 mM CaCl2. It counts as cell-based. Put shortly: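 Calcium influx was triggered by adding CaCl2 to 10 mM final, 3 min after compounds in tetraethylammonium-based buffer, pH 7.2, reached Fluo-4-AM-loaded recombinant HEK293 cells. The integrated kinetic fluorescence signal per concentration gave concentration-response curves by non-linear sigmoidal regression.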
A general note: A change in cytosolic calcium serves as a functional read-out for many receptors and channels.

pIC50: −log10 of the molar value.

T1 sequence (O95180 whole entry): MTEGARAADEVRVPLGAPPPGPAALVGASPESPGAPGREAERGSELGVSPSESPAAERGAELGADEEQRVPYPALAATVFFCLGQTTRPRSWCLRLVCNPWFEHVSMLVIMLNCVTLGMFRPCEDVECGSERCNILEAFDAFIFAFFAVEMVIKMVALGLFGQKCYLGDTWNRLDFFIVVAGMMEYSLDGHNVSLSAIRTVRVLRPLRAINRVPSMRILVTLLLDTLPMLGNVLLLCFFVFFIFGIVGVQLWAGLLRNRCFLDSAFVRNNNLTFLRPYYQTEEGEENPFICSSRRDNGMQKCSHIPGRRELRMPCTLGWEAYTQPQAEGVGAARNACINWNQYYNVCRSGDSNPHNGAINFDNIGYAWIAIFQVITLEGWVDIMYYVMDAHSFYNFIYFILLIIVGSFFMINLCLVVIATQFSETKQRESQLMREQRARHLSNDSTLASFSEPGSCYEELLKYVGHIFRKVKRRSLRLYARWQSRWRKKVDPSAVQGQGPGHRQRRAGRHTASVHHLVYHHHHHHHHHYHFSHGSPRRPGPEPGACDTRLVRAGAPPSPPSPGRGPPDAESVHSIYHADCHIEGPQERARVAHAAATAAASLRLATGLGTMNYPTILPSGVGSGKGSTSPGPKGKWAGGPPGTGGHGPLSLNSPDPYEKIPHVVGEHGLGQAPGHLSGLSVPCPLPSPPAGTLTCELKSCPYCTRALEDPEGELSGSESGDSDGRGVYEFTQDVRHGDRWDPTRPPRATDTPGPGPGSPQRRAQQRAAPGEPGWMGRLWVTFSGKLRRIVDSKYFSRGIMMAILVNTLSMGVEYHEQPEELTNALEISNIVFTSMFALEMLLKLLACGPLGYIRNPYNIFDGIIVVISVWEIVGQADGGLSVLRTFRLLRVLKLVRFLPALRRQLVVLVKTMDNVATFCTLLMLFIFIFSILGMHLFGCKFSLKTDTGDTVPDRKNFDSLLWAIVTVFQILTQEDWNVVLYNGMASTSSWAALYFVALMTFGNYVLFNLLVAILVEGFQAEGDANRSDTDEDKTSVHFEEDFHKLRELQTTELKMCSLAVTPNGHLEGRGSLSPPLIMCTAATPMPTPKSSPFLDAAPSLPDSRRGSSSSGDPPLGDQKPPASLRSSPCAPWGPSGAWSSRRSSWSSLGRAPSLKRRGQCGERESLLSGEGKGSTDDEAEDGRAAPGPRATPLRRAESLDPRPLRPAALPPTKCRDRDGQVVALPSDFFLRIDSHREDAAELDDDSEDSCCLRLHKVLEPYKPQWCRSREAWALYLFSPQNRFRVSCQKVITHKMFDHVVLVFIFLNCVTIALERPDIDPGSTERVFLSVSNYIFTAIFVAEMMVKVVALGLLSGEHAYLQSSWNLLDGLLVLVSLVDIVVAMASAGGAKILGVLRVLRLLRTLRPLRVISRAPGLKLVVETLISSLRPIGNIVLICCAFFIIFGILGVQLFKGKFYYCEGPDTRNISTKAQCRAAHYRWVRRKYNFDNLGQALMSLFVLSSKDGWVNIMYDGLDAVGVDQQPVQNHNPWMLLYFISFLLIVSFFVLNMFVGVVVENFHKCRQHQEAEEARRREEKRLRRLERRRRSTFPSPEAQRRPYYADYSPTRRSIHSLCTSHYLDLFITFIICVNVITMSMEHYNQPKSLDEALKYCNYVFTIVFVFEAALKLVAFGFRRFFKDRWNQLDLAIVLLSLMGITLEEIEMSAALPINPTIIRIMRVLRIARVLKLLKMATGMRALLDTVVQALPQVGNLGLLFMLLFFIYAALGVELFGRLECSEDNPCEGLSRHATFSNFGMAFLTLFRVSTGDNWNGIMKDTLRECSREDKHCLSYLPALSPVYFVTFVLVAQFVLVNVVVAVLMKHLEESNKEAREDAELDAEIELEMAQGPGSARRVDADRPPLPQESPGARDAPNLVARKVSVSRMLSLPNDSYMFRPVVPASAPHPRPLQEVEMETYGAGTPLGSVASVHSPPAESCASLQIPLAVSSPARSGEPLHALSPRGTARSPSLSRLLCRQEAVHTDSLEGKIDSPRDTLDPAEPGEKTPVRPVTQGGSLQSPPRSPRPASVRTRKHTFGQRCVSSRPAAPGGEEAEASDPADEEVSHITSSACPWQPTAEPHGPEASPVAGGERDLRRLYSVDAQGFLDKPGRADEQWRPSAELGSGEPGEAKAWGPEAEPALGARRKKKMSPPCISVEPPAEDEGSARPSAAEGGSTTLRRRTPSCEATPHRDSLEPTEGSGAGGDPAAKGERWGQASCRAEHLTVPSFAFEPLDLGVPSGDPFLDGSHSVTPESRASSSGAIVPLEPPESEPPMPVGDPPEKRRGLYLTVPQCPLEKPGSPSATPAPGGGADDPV

Regarding `Cc1cc(CC(=O)Nc2ccn(Cc3ccc(F)c(C#N)n3)n2)cnc1OCC(F)(F)F` [Example 418, N-[1-(6-Cyano-5-fluoro-pyridin-2-ylmethyl)-1H-pyrazol-3-yl]-2-[5-methyl-6-(2,2,2-trifluoro-ethoxy)-pyridin-3-yl]-acetamide], the pIC50 is 7.03.
The value for `Cc1cc(CC(=O)Nc2ccn(Cc3cc(C#N)c(F)cn3)n2)cnc1OCC(F)(F)F` [Example 419, N-[1-(4-Cyano-5-fluoro-pyridin-2-ylmethyl)-1H-pyrazol-3-yl]-2-[5-methyl-6-(2,2,2-trifluoro-ethoxy)-pyridin-3-yl]-acetamide] was 5.03; that for `Cc1cc(CC(=O)Nc2ccn(Cc3ccc(F)c(C#N)n3)n2)ccc1OCCC(F)(F)F` [Example 420, N-[1-(6-Cyano-5-fluoro-pyridin-2-ylmethyl)-1H-pyrazol-3-yl]-2-[3-methyl-4-(3,3,3-trifluoro-propoxy)-phenyl]-acetamide] was 8.06; that for `Cc1cc(CC(=O)Nc2ccn(Cc3cc(C#N)c(F)cn3)n2)ccc1OCCC(F)(F)F` [Example 421, N-[1-(4-Cyano-5-fluoro-pyridin-2-ylmethyl)-1H-pyrazol-3-yl]-2-[3-methyl-4-(3,3,3-trifluoro-propoxy)-phenyl]-acetamide] was 7.39.
In the case of “N-[1-(5-Cyano-pyridin-2-ylmethyl)-1H-pyrazol-3-yl]-2-[4-(1-methyl-cyclopropyl)-phenyl]-acetamide [Example 375]” it was 8.00.

In general, pIC50 refers to −log10 of the IC50, conventionally taken in molar units.
